Results on 5 compounds are retold here after patent US8268805B2, “Use of ceramides for depigmenting the skin” (L'Oreal, priority 2005, dated 2012).

Experiment [1] deals with coculture of keratinocytes and melanocytes. In words: Modulatory effect on melanogenesis: inhibition of melanin synthesis (thiouracil/leucine incorporation ratio). Format: cell-based. The conditions noted are these: ratio of thiouracil to leucine incorporation related to 100% of control, read-out: IC50 (concentration for which 50% of the melanin synthesis is inhibited). As for the experimental part:
The modulatory effect on melanogenesis of the compounds tested was measured according to the method described in patent FR-A-2734825, and also in the article by R. Schmidt, P. Krien and M. Regnier, Anal. Biochem., 235(2), 113-18, 1996. This test is carried out on a coculture of keratinocytes and melanocytes.
For the compound tested, the inhibitory activity on melanin synthesis was determined by estimating the ratio of thiouracil incorporation to leucine incorporation, related to 100% of the control (the control corresponds to the test carried out without compound to be tested). The IC50 values (concentration for which 50% of the melanin synthesis is inhibited) were determined.
The test was also carried out with arbutin and lucinol (2-butylbenzene-1,3-diol), which are known depigmenting compounds.

Experiment [2] concerns tyrosinase activity of the melanocytes of human skin. The following applies: cited from earlier work.

Take `OC[C@H]1O[C@@H](Oc2ccc(O)cc2)[C@H](O)[C@@H](O)[C@@H]1O` [Arbutin]: the IC50 in experiment [1] stood at 209000 nM. Consider `CCCCCCCC/C=C\CCCCCCCC(=O)NC(CO)C(O)CCCCCCCCCCCCCCC` (centres unmarked) [N-oleoyldihydrosphingosine], for which the IC50 in experiment [1] came to 100 nM. Regarding `CCCCCCCCCCCCC/C=C/[C@@H](O)[C@H](CO)NC(C)=O` [N-acetyl-D-erythrosphingosine], the “effect on the tyrosinase activity of the melanocytes of human skin” value in experiment [2] was “has an effect”. On to `CCCCCCCCCCCCCCCC(O)C(CO)NC(=O)C(O)CCCCCCCCCCCCCC` (centres unmarked) [N-2-hydroxypalmitoyldihydrosphingosine], for which the IC50 in experiment [1] is 100 nM.

In the case of `CCCCCCCCCCCCC/C=C/[C@@H](O)[C@@H](N)COP(=O)(O)O` [sphingosine-1-phosphate], in experiment [2], the “effect on the tyrosinase activity of the melanocytes of human skin” value is given as “no effect”.
